Measurements: patent US20250171451A1, “NOVEL HETEROCYCLIC COMPOUND AND PHARMACEUTICAL COMPOSITION COMPRISING SAME” (Samjin Pharmaceutical Co., Ltd., priority 2022, published 2025)

Assays:
[1] = test system: TEAD response element (TRE) luciferase reporter in MCF-7 cell lines; assay: TEAD response element (TRE) reporter assay; type: cell-based; details: Homo sapiens, MCF7; 0.2 μM compound, 24 hours, MCF-7 TEAD reporter cells, relative to vehicle (1% DMSO)
Procedure: MCF-7 cell lines injected with TEAD reporter genes expressing firefly luciferase upon activation of TEAD response element (TRE) were obtained from BPS bioscience (#60618). The TEAD reporter genes were injected to stable expression in the MCF-7 cell lines.
TEAD reporter genes expressing firefly luciferase upon activation of TEAD response element (TRE) were injected with TEAD reporter genes to ensure stable expression of the TEAD reporter genes. Here, the TEAD reporter genes expresses firefly luciferase upon activation of TEAD response element (TRE). The cells were cultured in a cell-only culture medium (BPS bioscience) to which 10 μg/mL insulin (Sigma) was added at 37° C. and 5% CO2.
In 24 hours after dispensing said cells into a 96-well plate, each of the compounds of the examples or a vehicle solvent (final 1% DMSO) was treated by being diluted with a serum-free culture medium so that the final concentration became 0.2 μM. In 24 hours after said treatment, a luciferase assay working solution (ONE-Step Luciferase assay reagent; BPS bioscience) containing a luciferase substrate was treated in each well at 100 μL, and then left in a shaker for 15 minutes to be well mixed. Then, a degree of luminescence generated by luciferase expressed according to TEAD activation was measured by a microplate reader (TECAN). A relative activity of luciferase […], and the results are shown in table 8 below.

[2] = target: T1, recombinant GST-TEAD1 proteins (209 to 426 a.a.) (Homo sapiens, UniProt P28347); assay: Evaluation of palmitoylation of TEAD protein; type: biochemical; details: 5 μM compound, 15 minutes preincubation, 3 μM alkyne palmitoyl-CoA 30 minutes, pH 6.4, vs DMSO control
T1 construct: recombinant GST-TEAD1 proteins (209 to 426 a.a.)
T1 sequence (P28347 209-426): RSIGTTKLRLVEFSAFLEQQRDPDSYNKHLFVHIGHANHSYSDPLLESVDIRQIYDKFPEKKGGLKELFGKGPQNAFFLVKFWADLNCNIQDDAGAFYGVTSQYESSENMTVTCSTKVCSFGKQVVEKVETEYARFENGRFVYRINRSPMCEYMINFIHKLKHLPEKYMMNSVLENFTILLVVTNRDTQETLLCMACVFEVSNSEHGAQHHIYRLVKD
Procedure: Each compound corresponding to a concentration of 5 μM was added to recombinant GST-TEAD1 proteins (209 to 426 a.a.) and cultured for 15 minutes. For an autopalmitoylation reaction of proteins after culturing, 3 μM alkyne palmitoyl-CoA (Cayman chemical) and 50 mM MES buffer (pH 6.4) were added and cultured for 30 minutes, after which 1% of sodium dodecyl sulfate (SDS) was added to stop the reaction. After that, biotinylation was performed through a CLICK (Click chemistry tools) reaction, and then a protein solution was concentrated to prepare a sample.
Analysis of the sample was performed using SDS-PAGE and streptavidin HRP (Thermo scientific). The resulting values were quantified using an Image J (NIH). For the intensity of the band obtained from Streptavidin blot, a palmitoylation inhibitory activity was analyzed based on the control group (DMSO). The normalization of each sample was performed using an anti-GST (91G1) (cell signaling) antibody.

| SMILES | inhibition at 0.2 µM [1] | inhibition at 5 µM [2] |
| --- | --- | --- |
| C=CC(=O)Nc1ccc2cnn(Cc3ccc(C(F)(F)F)cc3)c2c1 [Compound 17, N-(1-(4-(trifluoromethyl)benzyl)-1H-indazol-6-yl)acrylamide] | 30 to 50% | 40 to 80% |
| C=CC(=O)Nc1cnc2c(ccn2-c2ccc(C(F)(F)F)cc2)c1 [Compound 36, N-(1-(4-(trifluoromethyl)phenyl)-1H-pyrrolo[2,3-b]pyridin-5-yl)acrylamide] | > 50% | > 80% |
| C=CC(=O)Nc1cnc2c(c1)c(C)nn2-c1ccccc1C [Compound 75, N-(3-methyl-1-(o-tolyl)-1H-pyrazolo[3,4-b]pyridin-5-yl)acrylamide] | < 30% | 40 to 80% |
| C=CC(=O)Nc1cnc2c(c1)c(C)nn2-c1ccc(C(F)(F)F)cn1 [Compound 97, N-(3-methyl-1-(5-(trifluoromethyl)pyridin-2-yl)-1H-pyrazolo[3,4-b]pyridin-5-yl)acrylamide] | > 50% | < 40% |
| C=CC(=O)Nc1cnc2c(c1)c(C)nn2-c1cc(OC)cc(OC)c1 [Compound 84, N-(1-(3,5-dimethoxyphenyl)-3-methyl-1H-pyrazolo[3,4-b]pyridin-5-yl)acrylamide] | < 30% | < 40% |
| C=CC(=O)Nc1cnc2c(c1)c(C)cn2C(=O)c1ccc(C(F)(F)F)cc1 [Compound 24, N-(3-methyl-1-(4-(trifluoromethyl)benzoyl)-1H-pyrrolo[2,3-b]pyridin-5-yl)acrylamide] | < 30% | > 80% |
| C=CC(=O)Nc1cnc2c(c1)c(C)nn2-c1ccc(C(F)(F)F)s1 [Compound 89, N-(3-methyl-1-(5-(trifluoromethyl)thiophen-2-yl)-1H-pyrazolo[3,4-b]pyridin-5-yl)acrylamide] | > 50% | 40 to 80% |
| C=CC(=O)Nc1ccc2c(c1)CCN2c1ccc(C(F)(F)F)cc1 [Compound 39, N-(1-(4-(trifluoromethyl)phenyl)indolin-5-yl)acrylamide] | 30 to 50% | 40 to 80% |
| C=CC(=O)Nc1ncc2cnn(Cc3ccc(C(F)(F)F)cc3)c2n1 [Compound 19, N-(1-(4-(trifluoromethyl)benzyl)-1H-pyrazolo[3,4-d]pyrimidin-6-yl)acrylamide] | < 30% | < 40% |
| C=CC(=O)Nc1cnc2c(cnn2-c2ccc(C(F)(F)F)cc2)c1 [Compound 35, N-(1-(4-(trifluoromethyl)phenyl)-1H-pyrazolo[3,4-b]pyridin-5-yl)acrylamide] | > 50% | 40 to 80% |
| C=CC(=O)Nc1cnc2c(c1)c(C)nn2-c1ccccc1OC [Compound 81, N-(1-(2-methoxyphenyl)-3-methyl-1H-pyrazolo[3,4-b]pyridin-5-yl)acrylamide] | < 30% | < 40% |
| Cc1cn(Cc2ccc(C(F)(F)F)cc2)c2ncc(NC(=O)C(C)C)cc12 [Compound 25, N-(3-methyl-1-(4-(trifluoromethyl)benzyl)-1H-pyrrolo[2,3-b]pyridin-5-yl)isobutyramide] | < 30% | 40 to 80% |
| C=CC(=O)Nc1cnc2c(c1)c(C)cn2CC1CCCC1 [Compound 9, N-(1-(cyclopentylmethyl)-3-methyl-1H-pyrrolo[2,3-b]pyridin-5-yl)acrylamide] | > 50% | > 80% |
| C=CC(=O)Nc1cnc2c(c1)c(C)nn2-c1ccc(C(C)C)cc1 [Compound 51, N-(1-(4-isopropylphenyl)-3-methyl-1H-pyrazolo[3,4-b]pyridin-5-yl)acrylamide] | < 30% | > 80% |
| C=CC(=O)Nc1cnc2c(cnn2Cc2ccc(C(F)(F)F)cc2)n1 [Compound 16, N-(1-(4-(trifluoromethyl)benzyl)-1H-pyrazolo[3,4-b]pyrazin-5-yl)acrylamide] | > 50% | < 40% |
| C=CC(=O)Nc1cnc2c(c1)c(C)cn2Cc1ccc(C(F)F)cc1 [Compound 71, N-(1-(4-(difluoromethyl)benzyl)-3-methyl-1H-pyrrolo[2,3-b]pyridin-5-yl)acrylamide] | 30 to 50% | < 40% |
| C=CC(=O)Nc1ncc2c(cnn2Cc2ccc(C(F)(F)F)cc2)n1 [Compound 22, N-(1-(4-(trifluoromethyl)benzyl)-1H-pyrazolo[4,3-d]pyrimidin-5-yl)acrylamide] | < 30% | < 40% |
| C=CC(=O)Nc1cnc2c(c1)c(C)nn2Cc1ccc(C(F)(F)F)s1 [Compound 62, N-(3-methyl-1-((5-(trifluoromethyl)thiophen-2-yl)methyl)-1H-pyrazolo[3,4-b]pyridin-5-yl)acrylamide] | 30 to 50% | 40 to 80% |
| CC=CC(=O)Nc1cnc2c(c1)c(C)cn2CCCC [Compound 23, N-(1-butyl-3-methyl-1H-pyrrolo[2,3-b]pyridin-5-yl)but-2-enamide] | < 30% | < 40% |
| C=CC(=O)Nc1cnc2c(c1)c(C)nn2-c1ccc(C(F)(F)F)c(C)c1 [Compound 74, N-(3-methyl-1-(3-methyl-4-(trifluoromethyl)phenyl)-1H-pyrazolo[3,4-b]pyridin-5-yl)acrylamide] | > 50% | 40 to 80% |
| C=CC(=O)Nc1cnc2c(c1)c(C)nn2Cc1ccc(OC(F)(F)F)cc1 [Compound 49, N-(3-methyl-1-(4-(trifluoromethoxy)benzyl)-1H-pyrazolo[3,4-b]pyridin-5-yl)acrylamide] | < 30% | 40 to 80% |
| C=CC(=O)Nc1cnc2c(c1)c(C)nn2-c1ccc(C(C)(C)C)cc1 [Compound 79, N-(1-(4-(tert-butyl)phenyl)-3-methyl-1H-pyrazolo[3,4-b]pyridin-5-yl)acrylamide] | 30 to 50% | 40 to 80% |
| C=CC(=O)Nc1cnc2c(c1)c(C)nn2-c1ccc(C(F)F)cc1 [Compound 69, N-(1-(4-(difluoromethyl)phenyl)-3-methyl-1H-pyrazolo[3,4-b]pyridin-5-yl)acrylamide] | 30 to 50% | 40 to 80% |
| C=CC(=O)Nc1cnc2c(cnn2CCCOC(F)(F)F)c1 [Compound 12, N-(1-(3-(trifluoromethoxy)propyl)-1H-pyrazolo[3,4-b]pyridin-5-yl)acrylamide] | < 30% | < 40% |
| C=CC(=O)Nc1ccc2c(C)nn(Cc3ccc(C(F)(F)F)cc3)c2c1 [Compound 32, N-(3-methyl-1-(4-(trifluoromethyl)benzyl)-1H-indazol-6-yl)acrylamide] | > 50% | 40 to 80% |
| C=CC(=O)Nc1cnc2c(c1)c(C)nn2Cc1ccc(C(F)(F)F)cc1 [Compound 13, N-(3-methyl-1-(4-(trifluoromethyl)benzyl)-1H-pyrazolo[3,4-b]pyridin-5-yl)acrylamide] | 30 to 50% | > 80% |
| C=CC(=O)Nc1cnc2c(c1)c(C)nn2Cc1ccc(C(F)F)cc1 [Compound 67, N-(1-(4-(difluoromethyl)benzyl)-3-methyl-1H-pyrazolo[3,4-b]pyridin-5-yl)acrylamide] | 30 to 50% | < 40% |
